Data published in patent US9981916B2 (Genentech, Inc., priority 2013, dated 2018).

Biological target: T1, RORc ligand binding domain (Homo sapiens, UniProt P51449)
T1 construct: host or cells: E. coli
T1 sequence (P51449 269-508 limits assumed): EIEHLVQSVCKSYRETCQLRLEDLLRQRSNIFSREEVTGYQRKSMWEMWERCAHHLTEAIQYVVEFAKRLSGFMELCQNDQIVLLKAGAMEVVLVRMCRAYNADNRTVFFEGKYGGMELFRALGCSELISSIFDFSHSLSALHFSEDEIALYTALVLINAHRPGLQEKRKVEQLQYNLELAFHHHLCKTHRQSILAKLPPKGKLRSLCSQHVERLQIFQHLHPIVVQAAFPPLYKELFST
Assay: In vitro RORc ligand binding assay (25-[3H]hydroxycholesterol displacement, filter binding)
Details: 6 nM 25-[3H]hydroxycholesterol, 0.6 ug/mL RORc receptor, 3 h at 25° C.
Outline: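 Compounds in 5% DMSO, either dose-response or screened at 1 and 10 uM, competed with 6 nM 25-[3H]hydroxycholesterol for 0.6 ug/mL RORc over 3 h at 25° C (HEPES pH 7.4, NaCl, MgCl2, DTT, BSA buffer). Bound tracer was filter-harvested and counted; nonspecific binding came from 1 uM 25-hydroxycholesterol.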

Row | Compound | IC50 [nM]
1 | CC1(C)[C@H]2CC[C@]1(Cn1ccccc1=O)c1nnc(-c3c(F)cccc3F)cc12 [Example 121, 1-{[(5R,8S)-3-(2,6-difluorophenyl)-9,9-dimethyl-6,7-dihydro-5,8-methanocinnolin-8(5H)-yl]methyl}pyridin-2(1H)-one] | 199
2 | CCc1nnc([C@@]23CC[C@@H](c4cc(-c5c(F)cccc5F)nnc42)C3(C)C)o1 [Example 122, (5R,8R)-3-(2,6-difluorophenyl)-9,9-dimethyl-8-(5-ethyl-1,3,4-oxadiazol-2-yl)-5,6,7,8-tetrahydro-5,8-methanocinnoline] | 17
3 | CC1(C)[C@H]2CC[C@]1(c1nnc(C3CC3)o1)c1nnc(-c3c(F)cccc3F)cc12 [Example 123, (5R,8R)-3-(2,6-difluorophenyl)-9,9-dimethyl-8-(5-cyclopropyl-1,3,4-oxadiazol-2-yl)-5,6,7,8-tetrahydro-5,8-methanocinnoline] | 109
4 | CCc1nnc([C@@]23CC[C@@H](c4cc(-c5c(F)cccc5F)nnc42)C3(C)C)s1 [Example 124, (5R,8R)-3-(2,6-difluorophenyl)-9,9-dimethyl-8-(5-ethyl-1,3,4-thiadiazol-2-yl)-5,6,7,8-tetrahydro-5,8-methanocinnoline] | 117
5 | CC(C)c1nnc([C@@]23CC[C@@H](c4cc(-c5c(F)cccc5F)nnc42)C3(C)C)o1 [Example 125, (5R,8R)-3-(2,6-difluorophenyl)-9,9-dimethyl-8-(5-isopropyl-1,3,4-oxadiazol-2-yl)-5,6,7,8-tetrahydro-5,8-methanocinnoline] | 811
6 | CC1(C)[C@H]2C=C[C@]1(C)c1nnc(-c3c(F)cccc3F)cc12 [Example 126, (5R,8S)-3-(2,6-difluorophenyl)-8,9,9-trimethyl-5,8-dihydro-5,8-methanocinnoline] | 340
7 | CC1(C)[C@H]2C(=O)C[C@]1(C)c1nnc(-c3ccccc3F)cc12 [Example 127, (5R,8S)-3-(2-fluorophenyl)-8,9,9-trimethyl-7,8-dihydro-5,8-methanocinnolin-6(5H)-one] | 1700
8 | CC1(C)[C@@H]2CC[C@@]1(C(=O)Nc1ccc(C#N)cn1)c1nnc(-c3ccccc3F)cc12 [Example 128, (5S,8S)-N-(5-cyanopyridin-2-yl)-3-(2-fluorophenyl)-9,9-dimethyl-5,6,7,8-tetrahydro-5,8-methanocinnoline-8-carboxamide] | 848
9 | CC1(C)[C@@H]2CC[C@@]1(C(=O)Nc1ccccc1S(C)(=O)=O)c1nnc(-c3ccccc3F)cc12 [Example 129, (5S,8S)-3-(2-fluorophenyl)-9,9-dimethyl-N-(2-(methylsulfonyl)phenyl)-5,6,7,8-tetrahydro-5,8-methanocinnoline-8-carboxamide] | 1790
10 | CC1(C)[C@@H]2CC[C@@]1(C(=O)NCC(F)F)c1nnc(-c3ccccc3F)cc12 [Example 130, (5S,8S)-N-(2,2-difluoroethyl)-3-(2-fluorophenyl)-9,9-dimethyl-5,6,7,8-tetrahydro-5,8-methanocinnoline-8-carboxamide] | 1120
11 | CC(C)CNC(=O)[C@]12CC[C@H](c3cc(-c4ccccc4F)nnc31)C2(C)C [Example 131, (5S,8S)-3-(2-fluorophenyl)-N-isobutyl-9,9-dimethyl-5,6,7,8-tetrahydro-5,8-methanocinnoline-8-carboxamide] | 1330
12 | CC1(C)[C@@H]2CC[C@@]1(C(=O)NCC1CC1)c1nnc(-c3ccccc3F)cc12 [Example 132, (5S,8S)-N-(cyclopropylmethyl)-3-(2-fluorophenyl)-9,9-dimethyl-5,6,7,8-tetrahydro-5,8-methanocinnoline-8-carboxamide] | 707
13 | CC1(C)[C@@H]2CC[C@@]1(C(=O)NCc1ccc(F)cc1)c1nnc(-c3ccccc3F)cc12 [Example 133, (5S,8S)-N-(4-fluorobenzyl)-3-(2-fluorophenyl)-9,9-dimethyl-5,6,7,8-tetrahydro-5,8-methanocinnoline-8-carboxamide] | 876
14 | CCNC(=O)[C@]12CC[C@H](c3cc(-c4ccccc4F)nnc31)C2(C)C [Example 134, (5S,8S)-N-ethyl-3-(2-fluorophenyl)-9,9-dimethyl-5,6,7,8-tetrahydro-5,8-methanocinnoline-8-carboxamide] | 211
15 | CC1(C)[C@H]2CC[C@]1(C(=O)N1CC(F)(F)C1)c1nnc(-c3c(F)cccc3F)cc12 [Example 135, (3,3-difluoroazetidin-1-yl)((5R,8R)-3-(2,6-difluorophenyl)-9,9-dimethyl-5,6,7,8-tetrahydro-5,8-methanocinnolin-8-yl)methanone] | 643
16 | COC(=O)C1CN(C(=O)[C@@]23CC[C@@H](c4cc(-c5c(F)cccc5F)nnc42)C3(C)C)C1 [Example 136, methyl 1-((5R,8R)-3-(2,6-difluorophenyl)-9,9-dimethyl-5,6,7,8-tetrahydro-5,8-methanocinnoline-8-carbonyl)azetidine-3-carboxylate] | 524
17 | COCC1CN(C(=O)[C@@]23CC[C@@H](c4cc(-c5c(F)cccc5F)nnc42)C3(C)C)C1 [Example 137, ((5R,8R)-3-(2,6-difluorophenyl)-9,9-dimethyl-5,6,7,8-tetrahydro-5,8-methanocinnolin-8-yl)(3-(methoxymethyl)azetidin-1-yl)methanone] | 182
18 | CC1(C)[C@H]2CC[C@]1(c1nnc(C(F)F)o1)c1nnc(-c3c(F)cccc3F)cc12 [Example 138, 2-(difluoromethyl)-5-((5R,8R)-3-(2,6-difluorophenyl)-9,9-dimethyl-5,6,7,8-tetrahydro-5,8-methanocinnolin-8-yl)-1,3,4-oxadiazole] | 170
19 | CC1(C)[C@@H]2CC[C@@]1(C(=O)N1CC(F)(F)C1)c1nnc(-c3c(F)cccc3F)cc12 [Example 139, (3,3-difluoroazetidin-1-yl)((5S,8S)-3-(2,6-difluorophenyl)-9,9-dimethyl-5,6,7,8-tetrahydro-5,8-methanocinnolin-8-yl)methanone] | 30
20 | COCC1CN(C(=O)[C@]23CC[C@H](c4cc(-c5c(F)cccc5F)nnc42)C3(C)C)C1 [Example 140, ((5S,8S)-3-(2,6-difluorophenyl)-9,9-dimethyl-5,6,7,8-tetrahydro-5,8-methanocinnolin-8-yl)(3-(methoxymethyl)azetidin-1-yl)methanone] | 19
21 | CC1(C)[C@H]2CC[C@]1(C(=O)N1CCC1)c1nnc(-c3c(F)cccc3F)cc12 [Example 141, azetidin-1-yl((5R,8R)-3-(2,6-difluorophenyl)-9,9-dimethyl-5,6,7,8-tetrahydro-5,8-methanocinnolin-8-yl)methanone] | 608
22 | CC1(C)CN(C(=O)[C@@]23CC[C@@H](c4cc(-c5c(F)cccc5F)nnc42)C3(C)C)C1 [Example 142, ((5R,8R)-3-(2,6-difluorophenyl)-9,9-dimethyl-5,6,7,8-tetrahydro-5,8-methanocinnolin-8-yl)(3,3-dimethylazetidin-1-yl)methanone] | 1420
23 | Cc1nnc(OC[C@@]23CC[C@@H](c4cc(-c5c(F)cccc5F)nnc42)C3(C)C)o1 [Example 143, 2-(((5R,8R)-3-(2,6-difluorophenyl)-9,9-dimethyl-5,6,7,8-tetrahydro-5,8-methanocinnolin-8-yl)methoxy)-5-methyl-1,3,4-oxadiazole] | 286
24 | Cc1nnc(NC[C@@]23CC[C@@H](c4cc(-c5c(F)cccc5F)nnc42)C3(C)C)o1 [Example 144, N-(((5R,8S)-3-(2,6-difluorophenyl)-9,9-dimethyl-5,6,7,8-tetrahydro-5,8-methanocinnolin-8-yl)methyl)-5-methyl-1,3,4-oxadiazol-2-amine] | 1370
25 | CC1(C)[C@H]2CC[C@]1(CO)c1nnc(Oc3c(F)cccc3F)cc12 [Example 145, ((5R,8R)-3-(2,6-difluorophenoxy)-9,9-dimethyl-5,6,7,8-tetrahydro-5,8-methanocinnolin-8-yl)methanol] | 2000
26 | Cc1nnc(N(C)C[C@@]23CC[C@@H](c4cc(-c5c(F)cccc5F)nnc42)C3(C)C)o1 [Example 146, N-(((5R,8S)-3-(2,6-difluorophenyl)-9,9-dimethyl-5,6,7,8-tetrahydro-5,8-methanocinnolin-8-yl)methyl)-N,5-dimethyl-1,3,4-oxadiazol-2-amine] | 11
27 | CC1(C)[C@H]2CC[C@]1(C(=O)N1CC3CC3C1)c1nnc(-c3c(F)cccc3F)cc12 (stereo partly drawn) [Example 147, 3-azabicyclo[3.1.0]hexan-3-yl((5R,8R)-3-(2,6-difluorophenyl)-9,9-dimethyl-5,6,7,8-tetrahydro-5,8-methanocinnolin-8-yl)methanone] | 8
28 | CCN(C[C@@]12CC[C@@H](c3cc(-c4c(F)cccc4F)nnc31)C2(C)C)c1nnc(C)o1 [Example 148, N-(((5R,8S)-3-(2,6-difluorophenyl)-9,9-dimethyl-5,6,7,8-tetrahydro-5,8-methanocinnolin-8-yl)methyl)-N-ethyl-5-methyl-1,3,4-oxadiazol-2-amine] | 19
29 | COCCN(C[C@@]12CC[C@@H](c3cc(-c4c(F)cccc4F)nnc31)C2(C)C)c1nnc(C)o1 [Example 149, N-(((5R,8S)-3-(2,6-difluorophenyl)-9,9-dimethyl-5,6,7,8-tetrahydro-5,8-methanocinnolin-8-yl)methyl)-N-(2-methoxyethyl)-5-methyl-1,3,4-oxadiazol-2-amine] | 54
30 | Cc1nnc(N(C[C@@]23CC[C@@H](c4cc(-c5c(F)cccc5F)nnc42)C3(C)C)C(C)C)o1 [Example 152, N-(((5R,8S)-3-(2,6-difluorophenyl)-9,9-dimethyl-5,6,7,8-tetrahydro-5,8-methanocinnolin-8-yl)methyl)-N-isopropyl-5-methyl-1,3,4-oxadiazol-2-amine] | 19
